Where two headings read alike, the source gives them in different places. Square brackets hold non-standard residues; d marks the D form. Peptide text beside a SMILES is read from it. Cit = NC(=O)NCCC[C@H](N)C(=O)O
How the values were obtained:
HLA-DRB1*04:01 = molecular target: T1, HLA-DRB1*04:01 (Homo sapiens, UniProt P01903+P01911, A100K/A169T/F76Y/I96L/K127E/L162R/M171V/N62H/P40V/Q125Y/R42H/S133A/S149N/S66Y/V115G/V209L/W38E); assay: HLA class II peptide binding, inhibition of radiolabeled peptide binding to purified MHC
T1 construct: EBV transformed homozygous cell lines were used as sources of MHC molecules; endogenous in cells; host or cells: EBV transformed homozygous cell lines

HLA-DRB1*01:01 = molecular target: T2, HLA-DRB1*01:01 (Homo sapiens, UniProt P01903+P01911, A100R/D57E/F55L/F60I/F76Y/I96L/L162R/M171V/P40L/Q125E/R42F/V115G/Y59C); assay: as above
T2 construct: EBV transformed homozygous cell lines were used as sources of MHC molecules; endogenous in cells; host or cells: EBV transformed homozygous cell lines

[1] = citrullinated 15-mer peptide (X = citrulline), purified HLA-DRB1*04:01, read-out: DRB1*04:01 binding capacity, Cit peptide (IC50 nM)
[2] = citrullinated 15-mer peptide (X = citrulline), purified HLA-DRB1*01:01, read-out: DRB1*01:01 binding capacity, Cit peptide (IC50 nM)
[3] = citrullinated peptide as listed (X at Cit position), read-out: DRB1*04:01 binding capacity Cit peptide (IC50 nM)
[4] = citrullinated peptide as listed (X at Cit position), read-out: DRB1*01:01 binding capacity Cit peptide (IC50 nM)
[5] = value of the wild-type (non-citrullinated) counterpart of the listed peptide, read-out: DRB1*04:01 binding capacity WT peptide (IC50 nM)
[6] = citrullinated 15-mer (X), purified MHC, inhibition of radiolabeled peptide binding, dash = IC50 >40,000 nM, read-out: DRB1*04:01 binding capacity, Cit peptide (IC50 nM)
[7] = citrullinated 15-mer (X), purified MHC, inhibition of radiolabeled peptide binding, dash = IC50 >40,000 nM, read-out: DRB1*01:01 binding capacity, Cit peptide (IC50 nM)

SMILES | IC50 (HLA-DRB1*04:01; [1]) [nM] | IC50 (HLA-DRB1*01:01; [2]) [nM] | IC50 (HLA-DRB1*04:01; [3]) [nM] | IC50 (HLA-DRB1*01:01; [4]) [nM] | also measured
CC(C)C[C@H](NC(=O)CNC(=O)[C@@H]1CCCN1C(=O)[C@H](C)NC(=O)CNC(=O)[C@@H]1CCCN1C(=O)[C@H](CC(C)C)NC(=O)CNC(=O)[C@H](CCCCN)NC(=O)[C@H](CCC(=O)O)NC(=O)CNC(=O)[C@H](C)NC(=O)[C@@H](N)CCCCN)C(=O)N[C@@H](CCCNC(N)=O)C(=O)NCC(=O)O [KAGEKGLPGAPGLXG] (H-KAGEKGLPGAPGL[Cit]G-OH) | > 40000 | 578 |  |  | 
CSCC[C@H](NC(=O)[C@H](Cc1ccc(O)cc1)NC(=O)[C@H](CCC(N)=O)NC(=O)[C@H](CC(C)C)NC(=O)[C@@H]1CCCN1C(=O)[C@H](CC(=O)O)NC(=O)[C@@H]1CCCN1C(=O)CNC(=O)[C@@H](N)CCCCN)C(=O)N[C@@H](CCCNC(N)=O)C(=O)N[C@@H](C)C(=O)N[C@@H](CC(=O)O)C(=O)N[C@@H](CCC(N)=O)C(=O)N[C@@H](C)C(=O)N[C@@H](C)C(=O)O [KGPDPLQYMXADQAA] (H-KGPDPLQYM[Cit]ADQAA-OH) |  |  | 45 | 9.2 | 
CC[C@H](C)[C@H](NC(=O)[C@H](CC(=O)O)NC(=O)[C@H](CCSC)NC(=O)[C@@H]1CCCN1C(=O)[C@H](C)NC(=O)[C@@H](NC(=O)[C@H](CC(=O)O)NC(=O)[C@@H](NC(=O)[C@@H](NC(=O)[C@@H]1CCCN1C(=O)[C@H](CC(C)C)NC(=O)[C@H](CCCNC(N)=O)NC(=O)[C@H](CO)NC(=O)[C@@H](NC(=O)[C@@H](N)CCCCN)[C@@H](C)O)[C@@H](C)CC)[C@@H](C)CC)[C@@H](C)CC)C(=O)O [KTSXLPIIDIAPMDI] (H-KTS[Cit]LPIIDIAPMDI-OH) |  |  | 7060 | 634 | IC50 (HLA-DRB1*04:01; [5]): 8750 nM; IC50 (HLA-DRB1*01:01; value of the wild-type (non-citrullinated) counterpart of the listed peptide, read-out: DRB1*01:01 binding capacity WT peptide (IC50 nM)): 361 nM
CC[C@H](C)[C@H](NC(=O)CNC(=O)[C@H](CCCNC(=N)N)NC(=O)[C@H](CCC(N)=O)NC(=O)CNC(=O)[C@H](C)NC(=O)[C@@H](N)CC(C)C)C(=O)N[C@H](C(=O)NCC(=O)N[C@@H](CC(C)C)C(=O)N1CCC[C@H]1C(=O)NCC(=O)N[C@@H](CCC(N)=O)C(=O)N[C@@H](CCCNC(N)=O)C(=O)NCC(=O)O)C(C)C [LAGQRGIVGLPGQXG] (H-LAGQRGIVGLPGQ[Cit]G-OH) | 5040 | 1.3 |  |  | 
CC[C@H](C)[C@H](NC(=O)CNC(=O)[C@H](CCCNC(N)=O)NC(=O)[C@H](CCC(N)=O)NC(=O)CNC(=O)[C@H](C)NC(=O)[C@@H](N)CC(C)C)C(=O)N[C@H](C(=O)NCC(=O)N[C@@H](CC(C)C)C(=O)N1CCC[C@H]1C(=O)NCC(=O)N[C@@H](CCC(N)=O)C(=O)N[C@@H](CCCNC(=N)N)C(=O)NCC(=O)O)C(C)C [LAGQXGIVGLPGQRG] (H-LAGQ[Cit]GIVGLPGQRG-OH) | 10500 | 13 |  |  | 
CSCC[C@H](NC(=O)[C@H](CCC(N)=O)NC(=O)[C@@H](NC(=O)[C@H](CC(N)=O)NC(=O)[C@H](C)NC(=O)[C@@H](NC(=O)[C@H](CC(N)=O)NC(=O)[C@@H]1CCCN1C(=O)[C@H](C)NC(=O)[C@@H](N)CC(C)C)[C@@H](C)O)C(C)C)C(=O)N[C@H](C(=O)N[C@@H](Cc1ccccc1)C(=O)N[C@@H](CC(C)C)C(=O)N[C@@H](CCCNC(N)=O)C(=O)N[C@@H](CC(C)C)C(=O)O)[C@@H](C)O [LAPNTANVQMTFLXL] (H-LAPNTANVQMTFL[Cit]L-OH) |  |  | 17400 | 54 | 
CSCC[C@H](NC(=O)[C@H](CCC(=O)O)NC(=O)[C@H](CCC(=O)O)NC(=O)[C@H](CCC(=O)O)NC(=O)[C@H](Cc1ccc(O)cc1)NC(=O)[C@H](CC(C)C)NC(=O)[C@H](CC(=O)O)NC(=O)CNC(=O)[C@@H](N)CC(C)C)C(=O)N[C@@H](CCCNC(=N)N)C(=O)N[C@@H](CCC(=O)O)C(=O)N[C@@H](CC(C)C)C(=O)N[C@@H](CCCNC(=N)N)C(=O)N[C@@H](CCCNC(N)=O)C(=O)N[C@@H](CCC(N)=O)C(=O)O [LGDLYEEEMRELRXQ] |  |  |  |  | IC50 (HLA-DRB1*04:01; [6]): > 40000 nM; IC50 (HLA-DRB1*01:01; [7]): 14800 nM
CSCC[C@H](NC(=O)[C@H](CCC(=O)O)NC(=O)[C@H](CCC(=O)O)NC(=O)[C@H](CCC(=O)O)NC(=O)[C@H](Cc1ccc(O)cc1)NC(=O)[C@H](CC(C)C)NC(=O)[C@H](CC(=O)O)NC(=O)CNC(=O)[C@@H](N)CC(C)C)C(=O)N[C@@H](CCCNC(=N)N)C(=O)N[C@@H](CCC(=O)O)C(=O)N[C@@H](CC(C)C)C(=O)N[C@@H](CCCNC(N)=O)C(=O)N[C@@H](CCCNC(=N)N)C(=O)N[C@@H](CCC(N)=O)C(=O)O [LGDLYEEEMRELXRQ] |  |  |  |  | IC50 (HLA-DRB1*04:01; [6]): > 40000 nM; IC50 (HLA-DRB1*01:01; [7]): 12500 nM
CSCC[C@H](NC(=O)[C@H](CCC(=O)O)NC(=O)[C@H](CCC(=O)O)NC(=O)[C@H](CCC(=O)O)NC(=O)[C@H](Cc1ccc(O)cc1)NC(=O)[C@H](CC(C)C)NC(=O)[C@H](CC(=O)O)NC(=O)CNC(=O)[C@@H](N)CC(C)C)C(=O)N[C@@H](CCCNC(N)=O)C(=O)N[C@@H](CCC(=O)O)C(=O)N[C@@H](CC(C)C)C(=O)N[C@@H](CCCNC(=N)N)C(=O)N[C@@H](CCCNC(=N)N)C(=O)N[C@@H](CCC(N)=O)C(=O)O [LGDLYEEEMXELRRQ] |  |  |  |  | IC50 (HLA-DRB1*04:01; [6]): > 40000 nM; IC50 (HLA-DRB1*01:01; [7]): 13800 nM
CSCC[C@H](NC(=O)[C@H](Cc1ccc(O)cc1)NC(=O)[C@H](CCC(N)=O)NC(=O)[C@H](CC(C)C)NC(=O)[C@@H]1CCCN1C(=O)[C@H](CC(=O)O)NC(=O)[C@@H]1CCCN1C(=O)CNC(=O)[C@H](CCCCN)NC(=O)[C@H](CCC(=O)O)NC(=O)[C@H](CCCNC(=N)N)NC(=O)[C@@H]1CCCN1C(=O)CNC(=O)[C@@H](N)CC(C)C)C(=O)N[C@@H](CCCNC(N)=O)C(=O)O [LGPREKGPDPLQYMX] (H-LGPREKGPDPLQYM[Cit]-OH) |  |  | > 40000 | 19700 | IC50 (HLA-DRB1*04:01; [5]): > 40000 nM
CSCC[C@H](NC(=O)[C@H](Cc1ccc(O)cc1)NC(=O)[C@H](CCC(N)=O)NC(=O)[C@H](CC(C)C)NC(=O)[C@@H]1CCCN1C(=O)[C@H](CC(=O)O)NC(=O)[C@@H]1CCCN1C(=O)CNC(=O)[C@H](CCCCN)NC(=O)[C@H](CCC(=O)O)NC(=O)[C@H](CCCNC(N)=O)NC(=O)[C@@H]1CCCN1C(=O)CNC(=O)[C@@H](N)CC(C)C)C(=O)N[C@@H](CCCNC(=N)N)C(=O)O [LGPXEKGPDPLQYMR] (H-LGP[Cit]EKGPDPLQYMR-OH) | > 40000 | 10900 |  |  | 
CSCC[C@H](NC(=O)[C@@H](NC(=O)CNC(=O)[C@@H](N)CC(C)C)C(C)C)C(=O)N[C@@H](CCC(N)=O)C(=O)NCC(=O)N1CCC[C@H]1C(=O)N[C@@H](CCSC)C(=O)NCC(=O)N1CCC[C@H]1C(=O)N[C@@H](CCSC)C(=O)NCC(=O)N1CCC[C@H]1C(=O)N[C@@H](CCCNC(N)=O)C(=O)NCC(=O)O [LGVMQGPMGPMGPXG] (H-LGVMQGPMGPMGP[Cit]G-OH) | > 40000 | 220 |  |  | 
CC(C)C[C@H](NC(=O)[C@H](CCC(=O)O)NC(=O)[C@H](C)NC(=O)[C@H](CC(C)C)NC(=O)[C@@H](N)CC(C)C)C(=O)N[C@@H](CCC(=O)O)C(=O)N[C@@H](CCC(N)=O)C(=O)N[C@@H](CC(C)C)C(=O)N[C@@H](CCCCN)C(=O)NCC(=O)N[C@@H](CCC(N)=O)C(=O)NCC(=O)N[C@@H](CCCCN)C(=O)N[C@@H](CO)C(=O)N[C@@H](CCCNC(N)=O)C(=O)O [LLAELEQLKGQGKSX] (H-LLAELEQLKGQGKS[Cit]-OH) |  |  |  |  | IC50 (HLA-DRB1*04:01; [6]): > 40000 nM; IC50 (HLA-DRB1*01:01; [7]): 428 nM
CC[C@H](C)[C@H](NC(=O)[C@H](CC(C)C)NC(=O)[C@@H](N)CC(C)C)C(=O)N[C@@H](CCC(N)=O)C(=O)NCC(=O)N[C@@H](CO)C(=O)N[C@@H](CC(N)=O)C(=O)N[C@@H](CC(=O)O)C(=O)N[C@H](C(=O)N[C@@H](CCC(=O)O)C(=O)N[C@H](C(=O)N[C@@H](CCCNC(N)=O)C(=O)N[C@@H](C)C(=O)N[C@@H](CCC(=O)O)C(=O)NCC(=O)O)[C@@H](C)CC)C(C)C [LLIQGSNDVEIXAEG] (H-LLIQGSNDVEI[Cit]AEG-OH) |  |  | 8740 | 998 | 
CC(C)C[C@H](NC(=O)[C@H](CC(N)=O)NC(=O)[C@@H](NC(=O)[C@H](CCC(=O)O)NC(=O)[C@H](CCCNC(N)=O)NC(=O)[C@H](CC(C)C)NC(=O)[C@H](CC(N)=O)NC(=O)[C@@H](N)CC(C)C)[C@@H](C)O)C(=O)N[C@@H](CC(=O)O)C(=O)N[C@@H](CO)C(=O)N[C@@H](CC(C)C)C(=O)N1CCC[C@H]1C(=O)N[C@@H](CC(C)C)C(=O)N[C@H](C(=O)N[C@@H](CC(=O)O)C(=O)O)C(C)C [LNLXETNLDSLPLVD] | 4340 | 69 |  |  | 
CC(C)C[C@H](NC(=O)CNC(=O)[C@H](CCCNC(=N)N)NC(=O)[C@H](C)NC(=O)CNC(=O)[C@@H]1CCCN1C(=O)[C@@H](N)CC(C)C)C(=O)N[C@H](C(=O)NCC(=O)N[C@@H](CCCNC(N)=O)C(=O)N1CCC[C@H]1C(=O)NCC(=O)N[C@@H](CC(=O)O)C(=O)N[C@@H](C)C(=O)NCC(=O)O)[C@@H](C)O [LPGARGLTGXPGDAG] (H-LPGARGLTG[Cit]PGDAG-OH) | > 40000 | 18 |  |  | 

Source: paper PMC5421785, “Citrullination only infrequently impacts peptide binding to HLA class II MHC” (PLoS ONE, 2017)
